Usually AC50 stands for the concentration at which the activity in the assay is half-maximal. In general, CC50 refers to the concentration giving 50% cytotoxicity. Usually IC50 stands for the concentration that gives 50% inhibition. As usually defined, the Ki is the equilibrium dissociation constant of an inhibitor or competing ligand from its target. As usually defined, the EC50 is the concentration needed to bring the measured effect to its halfway point. Broadly, the IC90 is the concentration at which the effect reaches the 90% level.

The target of one experiment is Paired box protein Pax-8 (Homo sapiens, UniProt Q06710). Kind of experiment: inhibitors of PAX8-driven TPO luciferase reporter, dose response, RMG-I cells, cherry-pick (AID 687027).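 Also: luciferase reporter driven by Pax8 target thyroperoxidase promoter measured by SteadyGlo luminescence.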 It counts as functional, cell-based.
Chain of Paired box protein Pax-8 (Q06710 whole entry): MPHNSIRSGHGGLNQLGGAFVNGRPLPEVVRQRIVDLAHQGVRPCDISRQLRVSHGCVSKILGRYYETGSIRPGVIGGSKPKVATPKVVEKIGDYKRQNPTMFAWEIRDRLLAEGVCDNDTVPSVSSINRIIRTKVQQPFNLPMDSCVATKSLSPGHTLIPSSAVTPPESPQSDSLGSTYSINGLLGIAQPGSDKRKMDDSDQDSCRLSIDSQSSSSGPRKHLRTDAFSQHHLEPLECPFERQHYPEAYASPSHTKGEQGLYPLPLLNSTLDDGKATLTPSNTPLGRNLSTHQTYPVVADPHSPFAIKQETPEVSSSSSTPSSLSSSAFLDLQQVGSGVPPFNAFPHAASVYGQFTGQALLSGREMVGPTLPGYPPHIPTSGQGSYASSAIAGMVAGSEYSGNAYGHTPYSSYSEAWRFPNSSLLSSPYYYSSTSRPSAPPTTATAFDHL
Experiment [1] is described as follows: A549 cell cytotoxicity, dose response, cytotoxicity control, 24 h, CellTiter-Glo luminescence, cherry-picks (AID 1053115). It counts as functional, cell-based. As to conditions: A549, 24 h.
The nature of experiment [2]: THP-1 cell cytotoxicity, dose response, cytotoxicity control for non-replicating M. tuberculosis project (AID 489025). Type of experiment: functional.
A short description of experiment [3]: HepG2 cell cytotoxicity, dose response, cytotoxicity control for non-replicating M. tuberculosis project (AID 489018). Type of experiment: functional. The following applies: Mycobacterium tuberculosis.
Experiment [4] is described as follows: Vero E6 cell cytotoxicity, dose response, cytotoxicity control for non-replicating M. tuberculosis project, secondary assay (AID 492998). It counts as functional, VeroE6. The following applies: Vero C1008.
The nature of experiment [5]: cells. Type of experiment: functional.
A further experiment has as its target fMet-Leu-Phe receptor (Homo sapiens, UniProt P21462). Description: FPR ligands, dose response (AID 519). It counts as functional.
Another experiment addresses Estrogen receptor beta (Homo sapiens, UniProt Q92731).
Experiment [6] is described as follows: inhibitors of HIV Env-driven cell fusion, dose response, cherry-pick (AID 652057). Type of experiment: functional, cell-based.
A further experiment concerns the target Galanin receptor type 3 (Homo sapiens, UniProt O60755). Description: Fluorescence-based cell-based primary high throughput dose response assay to identify antagonists of the Galanin Receptor 3 (GalR3). It counts as functional.
Experiment [7] can be described thus: cells. It counts as functional, cell-based. The following applies: HEK-CNG.
A short description of experiment [8]: ZM109 Env clade C HIV-1 fusion inhibitors, dose response, HeLa effector, CEM target cells, luciferase, cherry-pick (AID 652058). It counts as functional, cell-based.
Experiment [9] in a line: inhibitors of clade B AD8 Env fusion, dose response, cell-based, cherry-pick (AID 652062).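 Also: luciferase signal from cell-cell fusion driven by HIV-1 clade B AD8 Env; potency is for inhibitors of fusion seen as a drop in luminescence.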 Type of experiment: functional.
Experiment [10] in a line: HIV Env cell-cell fusion inhibitors, dose response, HIV entry, plate reader, dry powder (AID 687023). It counts as functional, cell-based.
A short description of experiment [11]: CEM21 cell cytotoxicity, dose response, cytotoxicity control, plate reader, dry powder (AID 687026). It counts as functional, cell-based.
Experiment [12] is described as follows: inhibitors of non-replicating M. tuberculosis, dose response, luciferase, dry powder (AID 651619). As to conditions: Mycobacterium tuberculosis. Type of experiment: functional.
Experiment [13] can be described thus: inhibitors of non-replicating M. tuberculosis, dose response, luciferase, dry powder (AID 651620). The following applies: Mycobacterium tuberculosis. Type of experiment: functional.
Experiment [14] deals with T1, Sentrin-specific protease 8 (Homo sapiens, UniProt Q96LD8).
T1 sequence (Q96LD8 whole entry): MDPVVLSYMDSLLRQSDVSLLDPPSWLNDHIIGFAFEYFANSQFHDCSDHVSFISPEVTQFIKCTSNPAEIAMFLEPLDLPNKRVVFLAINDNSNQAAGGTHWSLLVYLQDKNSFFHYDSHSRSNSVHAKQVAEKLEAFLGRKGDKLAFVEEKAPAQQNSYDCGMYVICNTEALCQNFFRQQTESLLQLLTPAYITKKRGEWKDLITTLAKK
Type of experiment: functional.

The target of experiment [15] is T1, Sentrin-specific protease 8. Type of experiment: functional. The source holds these as a separate data set.
The target of another experiment is T2, Caspase-6 (Homo sapiens, UniProt P55212).
T2 sequence (P55212 whole entry): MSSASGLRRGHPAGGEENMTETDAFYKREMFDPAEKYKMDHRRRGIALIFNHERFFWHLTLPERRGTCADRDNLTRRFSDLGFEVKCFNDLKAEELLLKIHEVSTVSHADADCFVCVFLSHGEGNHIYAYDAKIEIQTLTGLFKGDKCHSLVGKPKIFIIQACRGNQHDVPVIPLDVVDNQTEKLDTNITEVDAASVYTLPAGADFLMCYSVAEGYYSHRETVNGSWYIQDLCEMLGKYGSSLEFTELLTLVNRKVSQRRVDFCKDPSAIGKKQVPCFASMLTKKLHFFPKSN
Description: human caspase-6 inhibitors, dose response, biochemical, VEID-R110 fluorescence, cherry-pick (AID 720632).

A further experiment addresses Caspase-9 (Homo sapiens, UniProt P55211). Kind of experiment: caspase-9 enzyme inhibition, dose response, selectivity assay for caspase-6 inhibitor project, biochemical, fluorescence, plate reader, cherry-picked samples (AID 743293).
Another experiment concerns the target Caspase-7 (Homo sapiens, UniProt P55210). Description: human caspase-7 inhibitors, dose response, selectivity assay for caspase-6 inhibitor project, biochemical, DEVD-R110 fluorescence, cherry-pick (AID 743295). It counts as […].
A further experiment concerns the target Caspase-8 (Homo sapiens, UniProt Q14790). Description: caspase-8 inhibition counter-screen, dose response, selectivity assay for caspase-6 inhibitor project, biochemical, Z-IETD-R110 fluorescence, cherry-picked samples (AID 743294). Background: The purpose of a counterscreen is to sort out artefacts and off-target activity.
The target of another experiment is T3, Caspase-3 (Homo sapiens, UniProt P42574).
T3 sequence (P42574 whole entry): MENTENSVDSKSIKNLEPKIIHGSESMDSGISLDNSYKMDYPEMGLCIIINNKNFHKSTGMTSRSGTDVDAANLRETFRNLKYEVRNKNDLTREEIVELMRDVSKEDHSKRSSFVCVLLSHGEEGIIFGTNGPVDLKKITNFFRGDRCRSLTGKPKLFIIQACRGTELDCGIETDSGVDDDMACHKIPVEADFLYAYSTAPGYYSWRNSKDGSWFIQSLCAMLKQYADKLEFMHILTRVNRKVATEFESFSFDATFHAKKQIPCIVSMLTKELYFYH
Kind of experiment: caspase-3 enzyme inhibitors, selectivity check, dose response, selectivity assay for caspase-6 allosteric inhibitor project, biochemical, fluorescence, cherry-picked samples (AID 743291).

Experiment [16] is described as follows: ADAM10 inhibitors, peptide cleavage, dose response, biochemical, QFRET (AID 743254).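 Also: ADAM10 enzyme with the DM2 quenched FRET peptide as substrate; EDANS fluorescence gain as the protease cuts the substrate; inhibitor potency against ADAM10 proteolytic activity.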
Experiment [17] addresses Disintegrin and metalloproteinase domain-containing protein 17 (Homo sapiens, UniProt P78536). Description: ADAM17 protease inhibitors, dose response, counter-screen for ADAM10 exosite inhibitor project, biochemical, quenched FRET substrate (AID 743253).
The test system of a further experiment is HEK293. Kind of experiment: HEK293T cell cytotoxicity, dose response, cytotoxicity control, ATP luminescence, cherry-pick samples (AID 687005).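 Also: cells exposed to compound for 48 hours.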 Type of experiment: functional, cell-based. The following applies: Homo sapiens.
Experiment [18] is described as follows: HEK293 Cytotoxicity Assay Measured in Cell-Based System Using Plate Reader - 7071-01_Inhibitor_Dose_CherryPick_Activity_Set2. It counts as functional.
Experiment [19] is described as follows: BHK-21 cell cytotoxicity, cytotoxicity control for flavivirus guanylyltransferase probe project, secondary screen (AID 624078). Type of experiment: functional.
For the next experiment, the target named is Kallikrein-7 (Homo sapiens, UniProt P49862). Description: Fluorescence Intensity-based biochemical primary high throughput dose response assay to identify activators of kallikrein-7 (K7) zymogen.
Chain of Kallikrein-7 (P49862 whole entry): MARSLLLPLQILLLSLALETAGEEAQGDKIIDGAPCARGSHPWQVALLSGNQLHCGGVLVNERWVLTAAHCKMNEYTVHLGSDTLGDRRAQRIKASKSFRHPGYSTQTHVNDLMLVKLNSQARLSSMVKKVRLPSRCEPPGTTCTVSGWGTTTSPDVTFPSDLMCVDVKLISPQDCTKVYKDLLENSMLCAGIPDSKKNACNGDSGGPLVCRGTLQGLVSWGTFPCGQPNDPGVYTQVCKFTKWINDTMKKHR
A short description of experiment [20]: HepG2 cell cytotoxicity, dose response, cytotoxicity control, ATP luminescence, cherry-pick, set 6 (AID 1053125). Type of experiment: functional, cell-based.
A short description of experiment [21]: cells. The following applies: A549.
Experiment [22] is described as follows: cells.
Experiment [23] is described as follows: cells. As to conditions: HEK293.

Molecules are shown by their SMILES. The source made the active and inactive calls.

Chain of Caspase-9 (P55211 1-315 limits assumed): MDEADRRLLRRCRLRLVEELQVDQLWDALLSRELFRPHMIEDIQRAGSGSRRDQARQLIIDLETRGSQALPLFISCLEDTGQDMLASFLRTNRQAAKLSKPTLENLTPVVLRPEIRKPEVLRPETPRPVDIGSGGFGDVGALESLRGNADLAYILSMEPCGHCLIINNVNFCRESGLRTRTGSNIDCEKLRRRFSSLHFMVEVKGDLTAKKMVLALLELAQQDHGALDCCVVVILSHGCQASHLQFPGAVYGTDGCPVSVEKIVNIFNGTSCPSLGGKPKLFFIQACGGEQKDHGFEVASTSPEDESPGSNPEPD
Chain of Caspase-9 (P55211 331-416 limits assumed): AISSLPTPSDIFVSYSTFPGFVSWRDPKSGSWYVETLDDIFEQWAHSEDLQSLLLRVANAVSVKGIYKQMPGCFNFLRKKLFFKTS
Chain of Disintegrin and metalloproteinase domain-containing protein 17 (P78536 whole entry, the tested form may be a part): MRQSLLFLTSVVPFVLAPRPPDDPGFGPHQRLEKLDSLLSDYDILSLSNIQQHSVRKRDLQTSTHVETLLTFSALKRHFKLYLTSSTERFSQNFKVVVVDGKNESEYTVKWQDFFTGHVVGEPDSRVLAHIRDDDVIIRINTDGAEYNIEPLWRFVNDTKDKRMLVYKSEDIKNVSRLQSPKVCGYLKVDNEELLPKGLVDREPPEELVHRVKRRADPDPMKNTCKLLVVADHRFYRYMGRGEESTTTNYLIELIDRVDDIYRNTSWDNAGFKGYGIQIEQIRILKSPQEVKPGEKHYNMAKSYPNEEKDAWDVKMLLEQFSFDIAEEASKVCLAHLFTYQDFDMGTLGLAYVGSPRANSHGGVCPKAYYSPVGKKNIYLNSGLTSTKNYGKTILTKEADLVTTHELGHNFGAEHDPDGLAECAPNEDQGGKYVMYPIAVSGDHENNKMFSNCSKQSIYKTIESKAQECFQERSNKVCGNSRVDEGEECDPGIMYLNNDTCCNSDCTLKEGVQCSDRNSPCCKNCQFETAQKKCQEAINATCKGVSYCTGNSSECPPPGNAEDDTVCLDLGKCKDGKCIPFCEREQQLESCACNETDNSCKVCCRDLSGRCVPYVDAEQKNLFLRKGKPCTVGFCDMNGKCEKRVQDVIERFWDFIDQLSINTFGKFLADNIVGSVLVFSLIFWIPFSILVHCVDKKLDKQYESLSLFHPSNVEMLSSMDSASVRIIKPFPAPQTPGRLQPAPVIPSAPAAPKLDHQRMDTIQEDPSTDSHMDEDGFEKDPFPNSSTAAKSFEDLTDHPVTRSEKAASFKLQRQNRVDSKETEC
Chain of Galanin receptor type 3 (O60755 whole entry): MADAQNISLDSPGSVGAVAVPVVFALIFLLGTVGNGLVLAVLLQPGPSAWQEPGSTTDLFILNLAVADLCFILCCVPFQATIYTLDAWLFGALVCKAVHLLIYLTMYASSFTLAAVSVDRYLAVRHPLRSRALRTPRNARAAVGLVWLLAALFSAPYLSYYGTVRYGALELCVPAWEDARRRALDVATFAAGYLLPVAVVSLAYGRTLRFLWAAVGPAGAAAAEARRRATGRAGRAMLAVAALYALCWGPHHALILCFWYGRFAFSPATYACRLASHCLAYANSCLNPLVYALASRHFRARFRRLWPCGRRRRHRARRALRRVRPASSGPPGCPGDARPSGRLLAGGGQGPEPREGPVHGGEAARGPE
Chain of Caspase-7 (P55210 24-198 limits assumed): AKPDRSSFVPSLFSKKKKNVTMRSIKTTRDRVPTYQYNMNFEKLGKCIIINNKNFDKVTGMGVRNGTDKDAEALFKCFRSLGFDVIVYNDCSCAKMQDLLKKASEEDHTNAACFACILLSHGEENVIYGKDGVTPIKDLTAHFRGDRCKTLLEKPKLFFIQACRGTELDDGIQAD
Chain of Caspase-7 (P55210 207-303 limits assumed): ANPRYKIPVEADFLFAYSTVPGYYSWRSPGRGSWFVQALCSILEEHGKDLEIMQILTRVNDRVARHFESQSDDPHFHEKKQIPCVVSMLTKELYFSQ
Chain of Estrogen receptor beta (Q92731 whole entry, the tested form may be a part): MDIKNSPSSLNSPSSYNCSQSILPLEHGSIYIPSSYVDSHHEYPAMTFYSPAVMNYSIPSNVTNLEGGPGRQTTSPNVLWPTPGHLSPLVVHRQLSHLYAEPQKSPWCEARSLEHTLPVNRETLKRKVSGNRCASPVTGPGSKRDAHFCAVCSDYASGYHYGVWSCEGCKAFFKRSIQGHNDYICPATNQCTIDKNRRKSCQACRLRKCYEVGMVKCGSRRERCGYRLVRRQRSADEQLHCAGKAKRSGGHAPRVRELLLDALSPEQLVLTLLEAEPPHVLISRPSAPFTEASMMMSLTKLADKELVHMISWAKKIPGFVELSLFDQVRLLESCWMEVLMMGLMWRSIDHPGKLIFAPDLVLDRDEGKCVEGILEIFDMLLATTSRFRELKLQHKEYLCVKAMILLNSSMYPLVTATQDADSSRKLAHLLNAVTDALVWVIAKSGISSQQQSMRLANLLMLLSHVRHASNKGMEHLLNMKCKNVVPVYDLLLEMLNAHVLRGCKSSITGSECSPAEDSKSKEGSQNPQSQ
Chain of Caspase-8 (Q14790 217-374 limits assumed): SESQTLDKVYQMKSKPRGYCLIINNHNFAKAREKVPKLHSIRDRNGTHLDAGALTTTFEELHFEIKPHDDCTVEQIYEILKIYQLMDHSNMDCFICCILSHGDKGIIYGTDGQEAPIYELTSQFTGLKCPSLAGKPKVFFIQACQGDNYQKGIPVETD
Chain of Caspase-8 (Q14790 385-479 limits assumed): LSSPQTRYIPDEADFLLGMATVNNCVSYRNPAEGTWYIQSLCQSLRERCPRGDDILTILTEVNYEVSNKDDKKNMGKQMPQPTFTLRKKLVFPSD
Chain of fMet-Leu-Phe receptor (P21462 whole entry): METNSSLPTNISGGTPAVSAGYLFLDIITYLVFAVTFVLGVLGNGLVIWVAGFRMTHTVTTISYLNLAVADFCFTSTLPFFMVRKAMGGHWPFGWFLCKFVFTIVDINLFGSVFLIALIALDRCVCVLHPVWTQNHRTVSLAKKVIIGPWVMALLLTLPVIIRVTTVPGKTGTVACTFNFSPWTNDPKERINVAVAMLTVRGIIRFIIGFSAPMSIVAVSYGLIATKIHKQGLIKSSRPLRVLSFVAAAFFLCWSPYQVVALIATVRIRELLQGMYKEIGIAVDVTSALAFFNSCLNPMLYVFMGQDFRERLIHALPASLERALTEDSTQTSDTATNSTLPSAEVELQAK

`Cc1ccc(S(=O)(=O)Nc2cccc3c2O[C@@H](CN(C)C(=O)Nc2ccc(C(F)(F)F)cc2)[C@@H](C)CN([C@H](C)CO)C3=O)cc1`: the concentration at half-maximal activity (AC50) is 12.6 µM (active) at Paired box protein Pax-8 and 42.6 µM (active) in experiment [1].
In the case of `Cc1nn2c(=O)c3c([nH]c2c1-c1ccc(Cl)cc1)CCC3`, the cytotoxic concentration (CC50) in [2] is 11.2 µM (active); in experiment [3] it was 14.9 µM (active); in [4], 14.1 µM (active). The IC50 in “cells [5]” was 10.3 µM (active). Besides, on fMet-Leu-Phe receptor, the inhibition constant (Ki) was 14.1 µM (active).
On to `Cc1oc(-c2ccc(Cl)cc2)nc1CN1CCCC(C(=O)NCc2cccnc2)C1` (centres undefined), for which the results for the IC50 against Estrogen receptor beta and on Galanin receptor type 3 were > 50 µM (not active) and 2 µM (active), respectively. In addition, the concentration at half-maximal activity (AC50) in experiment [6] is 4.1 µM (active); in [8], < 0.26 µM (active); in experiment [9] it was 4.75 µM (active); in experiment [10] it was 3.91 µM (active); in [11] it was > 70 µM (inactive). Further, in the experiment “cells [7]”, the EC50 is > 29.9 µM (inactive).
In the case of `c1ccc(CSc2nnc(-c3cccnc3)o2)nc1`, the IC90 in [12] and in experiment [13] was 16 µM (active) each time.
Consider `O=C1Cc2ccccc2C(=O)N1`, for which the IC50 was 0.702 µM (active) in [14] and 0.0408 µM (active) in [15]. The AC50 is 1.22 µM (active) on Caspase-6; 1.34 µM (active) on Caspase-9; 1.32 µM (active) on Caspase-7; 1.09 µM (active) on Caspase-8; 0.74 µM (active) at Caspase-3.
Take `Cc1cccc(C)c1-c1ccc(CN2C(CC(C)C)C(=O)N(Cc3cn(CCO)nn3)CCS2(=O)=O)cc1` (centres undefined): the IC50 in [16] was 12.3 µM (inactive); in experiment [17], > 69.5 µM (inactive).
As for `Cc1ccc(S(=O)(=O)Nc2ccc3c(c2)C(=O)N([C@@H](C)CO)C[C@@H](C)[C@@H](CN(C)S(=O)(=O)c2ccc(Cl)cc2)OCCCC[C@H](C)O3)cc1`, the concentration at half-maximal activity (AC50) (in the experiment on HEK293; in experiment [18]) was 24.4 µM (active) in each case.
For the compound `O=[N+]([O-])c1cccc(S(=O)(=O)Nc2cc(SCc3ccccc3)c(O)c3ccccc23)c1`, the CC50 in [19] is 14.9 µM (active).
Regarding `COc1ccc(OC)c(/C=C/C(=O)NCCc2nc3ccccc3[nH]2)c1`, the EC50 at Kallikrein-7 is > 69.5 µM (inactive).
Turning to `CN1CCc2c(sc(NC(=O)c3cc(Cl)sc3Cl)c2C(N)=O)C1`, the AC50 is > 52 µM (inactive) in experiment [20], > 52 µM (inactive) in “cells [21]”, 19.9 µM (active) in “cells [22]” and 33.7 µM (active) in “cells [23]”.
